Patent US6586365B2, “Method for reducing pest damage to corn by treating transgenic corn seeds with clothianidin pesticide” (priority 2000, dated 2003)
Like-named read-outs stand apart in the source and are kept apart here.

System: western and northern corn root worm
Format: in vivo, corn rootworm
Settings: for PERCENT OF CONTROL (3-6 damage level) / PERCENT OF CONTROL (4-6 damage level) / PERCENT OF CONTROL (5-6 damage level) / PERCENT PLANTS HAVING 3-6 DAMAGE LEVEL / PERCENT PLANTS HAVING 4-6 DAMAGE LEVEL / PERCENT PLANTS HAVING 5-6 DAMAGE LEVEL: Iowa 1-6 Scale; for Corn root worm damage (Iowa 1-6 scale), means across locations / Corn root worm damage in each Iowa class (Iowa 1-6 scale): class 1 / Corn root worm damage in each Iowa class (Iowa 1-6 scale): class 2 / Corn root worm damage in each Iowa class (Iowa 1-6 scale): class 3 / Corn root worm damage in each Iowa class (Iowa 1-6 scale): class 4 / Corn root worm damage in each Iowa class (Iowa 1-6 scale): class 5 / Corn root worm damage in each Iowa class (Iowa 1-6 scale): class 6: stage VT-R1
Protocol: Corn seeds of the same hybrid species, with and without the transgenic event, were treated with clothianidin pesticide as follows. A seed treatment formulation was prepared by mixing a measured amount of clothianidin in water as a carrier and applying the formulation for one minute at room temperature to a measured weight of corn seed in a rotostatic seed treater. The respective weights of the pesticide preparation and the corn seed were calculated to provide the desired rate of treatment of pesticide on the seed. The pesticide was mixed into sufficient water to permit efficient distribution of the formulation to all of the seeds in the batch while minimizing loss of treatment formulation due to lack of uptake of the formulation by the seeds. Treated seeds were allowed to sit uncapped for at least four hours before planting.
A field trial was run in accordance with pertinent protocols and in conformance with USDA notification requirements. The purpose of the trial was to determine the efficacy of transgenic event Cry3Bb.11231 in corn seed in combination with corn rootworm seed treatments using clothianidin.
For each growing site that was selected, the plot design included the following:
The following seed treatment combinations were used for each growing area:
All seed treatments with pesticides were carried out as described in Example 1.
For seeds having treatments numbered 3 though 7, the pesticides were applied by the methods described in Example 1. In seed treatment number 8, commercially available Force® 3G was applied to the soil in a 5″ band at the time of sowing. The levels of application are as shown and are within the ranges recommended for standard commercial practice.
Corn seeds to be tested were planted and grown at five different locations across two Midwestern states in the United States corn belt according to the protocol described above.
The determination of damage by corn rootworm was made according to the following protocol. At stage VT-R1, an evaluation of corn rootworm damage was carried out by methods that are well known in the industry, and damage by corn rootworm was reported according to the Iowa 1-6 rating system. In that system, the root systems of 10 corn plants per plot are recovered and scored using the 1-6 rating scale, where: 1=no injury or only a few minor feeding scars, 2=feeding injury evident, but no roots eaten back to 1 ½ inches of the plant, 3=at least one root eaten off to within 1 ½ inches of the plant, but never an entire node of roots destroyed, 4=one node of roots eaten back to within 1 ½ inches of the plant, 5=two nodes (circles) of roots eaten back to within 1 ½ inches of the plant, 6=three nodes (circles) of roots eaten back to within 1 ½ inches of the plant.
The combinations of clothianidin seed treatment with corn seed having a Cry3Bb.11231 transgenic event were tested for possible synergy at three levels of rootworm damage. In the first test, shown in Table 2(a), the percentage of test plants having damage levels of from 3 to 6, on the Iowa 1-6 Scale, were determined for the control and for seeds treated with the pesticide at two levels, and for seeds having the transgenic event, alone and in combination. The following formula was then used to calculate a “synergy threshold”:
(% of control Cry3Bb.11231)*(% of control clothianidin treatment)/100.
This threshold was compared against the percent of control for the treatment combinations (i.e., Cry3Bb.11231 with clothianidin @ 100 gm/100 kg and Cry3Bb.11231 with clothianidin @ 300 gm/100 kg). If the treatment combination percent of control was below the threshold, then it was concluded that there was synergy.

[1] = clothianidin seed treatment @ 100 g/100 kg seed
[2] = clothianidin seed treatment @ 300 g/100 kg seed
[3] = clothianidin seed treatment @ 400 g/100 kg seed

## CN/C(=N\[N+](=O)[O-])NCc1cnc(Cl)s1 [Clothianidin, N-[(2-chloro-5-thiazoyl)methyl]-N′-methyl-N″-nitro,[C(E)]-(9Cl)-guanidine]
Clothianidin @ 100 gm/100 kg
  PERCENT OF CONTROL (3-6 damage level): 96.6%
  PERCENT OF CONTROL (4-6 damage level): 86.9%
  PERCENT OF CONTROL (5-6 damage level): 39.4%
  PERCENT PLANTS HAVING 3-6 DAMAGE LEVEL: 96.6%
  PERCENT PLANTS HAVING 4-6 DAMAGE LEVEL: 71.2%
  PERCENT PLANTS HAVING 5-6 DAMAGE LEVEL: 15.8%
Clothianidin @ 300 gm/100 kg
  PERCENT OF CONTROL (3-6 damage level): 91.5%
  PERCENT OF CONTROL (4-6 damage level): 50.65%
  PERCENT OF CONTROL (5-6 damage level): 23.9%
  PERCENT PLANTS HAVING 3-6 DAMAGE LEVEL: 91.5%
  PERCENT PLANTS HAVING 4-6 DAMAGE LEVEL: 41.5%
  PERCENT PLANTS HAVING 5-6 DAMAGE LEVEL: 9.6%
[1]
  Corn root worm damage (Iowa 1-6 scale), means across locations: 3.9
  Corn root worm damage in each Iowa class (Iowa 1-6 scale): class 1: 0
  Corn root worm damage in each Iowa class (Iowa 1-6 scale): class 2: 6
  Corn root worm damage in each Iowa class (Iowa 1-6 scale): class 3: 45
  Corn root worm damage in each Iowa class (Iowa 1-6 scale): class 4: 98
  Corn root worm damage in each Iowa class (Iowa 1-6 scale): class 5: 23
  Corn root worm damage in each Iowa class (Iowa 1-6 scale): class 6: 5
[2]
  Corn root worm damage (Iowa 1-6 scale), means across locations: 3.4
  Corn root worm damage in each Iowa class (Iowa 1-6 scale): class 1: 0
  Corn root worm damage in each Iowa class (Iowa 1-6 scale): class 2: 16
  Corn root worm damage in each Iowa class (Iowa 1-6 scale): class 3: 94
  Corn root worm damage in each Iowa class (Iowa 1-6 scale): class 4: 60
  Corn root worm damage in each Iowa class (Iowa 1-6 scale): class 5: 16
  Corn root worm damage in each Iowa class (Iowa 1-6 scale): class 6: 2
[3]
  Corn root worm damage (Iowa 1-6 scale), means across locations: 3.0
  Corn root worm damage in each Iowa class (Iowa 1-6 scale): class 1: 1
  Corn root worm damage in each Iowa class (Iowa 1-6 scale): class 2: 34
  Corn root worm damage in each Iowa class (Iowa 1-6 scale): class 3: 113
  Corn root worm damage in each Iowa class (Iowa 1-6 scale): class 4: 37
  Corn root worm damage in each Iowa class (Iowa 1-6 scale): class 5: 1
  Corn root worm damage in each Iowa class (Iowa 1-6 scale): class 6: 0
Seed treatment alone, all levels tested (100, 300, 400 gm/100 kg)
  effectiveness against corn rootworm damage (in words): effective against corn rootworm damage at all levels tested
